PubChem BioAssay AID248 (DTP/NCI, 2004)
Where “and” joins values, the source holds several entries; their conditions need not be identical. Equal values may be shown once. Toxic doses and inconclusive results are not listed. Rule as the data show it: active = T/C of 150% or more; inactive = T/C below 125%. Peptide text beside a SMILES is read from it. * marks the point of attachment. Cbz = O=C(OCc1ccccc1)*; CH2Cl = ClC*

System: L1210 leukemia ip in BDF1 mice, survival T/C
Assay: NCI In Vivo Anticancer Drug Screen. Data for tumor model L1210 Leukemia (intraperitoneal) in B6D2F1 (BDF1) mice
Conditions: endpoint: mean survival time, higher = longer survival
How it was run: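 Ratio derived from survival: compound-dosed mice over vehicle-dosed mice, all bearing a transplantable tumor.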

[1] = dose: 100.0 mg/kg/injection, schedule: Q04DX003 (ip), vehicle: Klucel (hydroxypropylcellulose) (HPC)
[2] = dose: 200.0 mg/kg/injection, schedule: Q04DX003 (ip), vehicle: Klucel (hydroxypropylcellulose) (HPC)
[3] = dose: 400.0 mg/kg/injection, schedule: Q04DX003 (ip), vehicle: Klucel (hydroxypropylcellulose) (HPC)
[4] = dose: 50.0 mg/kg/injection, schedule: Q01DX009 (ip), vehicle: Klucel (hydroxypropylcellulose) (HPC)
[5] = dose: 100.0 mg/kg/injection, schedule: Q01DX009 (ip), vehicle: Klucel (hydroxypropylcellulose) (HPC)
[6] = dose: 200.0 mg/kg/injection, schedule: Q01DX009 (ip), vehicle: Klucel (hydroxypropylcellulose) (HPC)
[7] = dose: 50.0 mg/kg/injection, schedule: Q01DX009 (ip), vehicle: saline with Tween-80
[8] = dose: 50.0 mg/kg/injection, schedule: Q04DX003 (ip), vehicle: saline with Tween-80
[9] = dose: 100.0 mg/kg/injection, schedule: Q01DX009 (ip), vehicle: saline with Tween-80
[10] = dose: 100.0 mg/kg/injection, schedule: Q01DX009 (ip), vehicle: saline
[11] = dose: 100.0 mg/kg/injection, schedule: Q04DX003 (ip), vehicle: saline with Tween-80
[12] = dose: 100.0 mg/kg/injection, schedule: Q04DX003 (ip), vehicle: saline
[13] = dose: 200.0 mg/kg/injection, schedule: Q01DX009 (ip), vehicle: saline
[14] = dose: 200.0 mg/kg/injection, schedule: Q04DX003 (ip), vehicle: saline with Tween-80
[15] = dose: 200.0 mg/kg/injection, schedule: Q04DX003 (ip), vehicle: saline
[16] = dose: 400.0 mg/kg/injection, schedule: Q04DX003 (ip), vehicle: saline with Tween-80
[17] = dose: 400.0 mg/kg/injection, schedule: Q04DX003 (ip), vehicle: saline
[18] = dose: 25.0 mg/kg/injection, schedule: Q01DX009 (ip), vehicle: Klucel (hydroxypropylcellulose) (HPC)
[19] = dose: 25.0 mg/kg/injection, schedule: Q04DX003 (ip), vehicle: Klucel (hydroxypropylcellulose) (HPC)
[20] = dose: 50.0 mg/kg/injection, schedule: Q04DX003 (ip), vehicle: Klucel (hydroxypropylcellulose) (HPC)
[21] = dose: 100.0 mg/kg/injection, schedule: Q04DX002 (ip), vehicle: saline
[22] = dose: 200.0 mg/kg/injection, schedule: Q04DX002 (ip), vehicle: saline
[23] = dose: 400.0 mg/kg/injection, schedule: Q04DX002 (ip), vehicle: saline
[24] = dose: 50.0 mg/kg/injection, schedule: Q01DX009 (ip), vehicle: saline
[25] = dose: 100.0 mg/kg/injection, schedule: Q01DX001 (ip), vehicle: Klucel (hydroxypropylcellulose) (HPC)
[26] = dose: 200.0 mg/kg/injection, schedule: Q01DX001 (ip), vehicle: Klucel (hydroxypropylcellulose) (HPC)
[27] = dose: 100.0 mg/kg/injection, schedule: Q01DX001 (ip), vehicle: saline
[28] = dose: 200.0 mg/kg/injection, schedule: Q01DX001 (ip), vehicle: saline
[29] = dose: 400.0 mg/kg/injection, schedule: Q01DX001 (ip), vehicle: saline

Measured: T/C

CC(=O)Nc1c(Cl)cc2c(c1Cl)C(=O)c1ccccc1-2
inactive: [1] 105 % of control | [2] 100 % of control | [3] 103 % of control

CCNc1nc(NCC)c(Cl)c(C(Cl)(Cl)Cl)n1
inactive: [4] 102 % of control | [5] 102 % of control | [6] 105 % of control

Cc1csc(N)c1C(N)=O
inactive: [7] 97 % of control | [8] 97 % of control | [9] 103 % of control | [10] 112 % of control | [11] 92 % of control | [12] 117 % of control | dose: 200.0 mg/kg/injection, schedule: Q01DX009 (ip), vehicle: saline with Tween-80 102 % of control | [13] 100 % of control | [14] 97 % of control | [15] 116 % of control | dose: 400.0 mg/kg/injection, schedule: Q01DX009 (ip), vehicle: saline with Tween-80 103 % of control | dose: 400.0 mg/kg/injection, schedule: Q01DX009 (ip), vehicle: saline 109 % of control | [16] 102 % of control | [17] 115 % of control

CCCCCCC(O)CO (configuration not stated)
inactive: [12] 105 % of control | [15] 112 % of control | [17] 109 % of control

CCN1CCN(Cc2ccccc2)C(CCl)C1 (configuration not stated)
inactive: dose: 12.5 mg/kg/injection, schedule: Q01DX009 (ip), vehicle: Klucel (hydroxypropylcellulose) (HPC) 96 % of control | dose: 12.5 mg/kg/injection, schedule: Q04DX003 (ip), vehicle: Klucel (hydroxypropylcellulose) (HPC) 100 % of control | [18] 102 % of control | [19] 96 % of control | [20] 93 % of control

Cc1ccc(S(=O)(=O)N2CC(O)C=Cc3ccccc32)cc1 (configuration not stated)
inactive: dose: 100.0 mg/kg/injection, schedule: Q01DX001 (ip), vehicle: carboxymethylcellulose (CMC) 107 % of control | dose: 200.0 mg/kg/injection, schedule: Q01DX001 (ip), vehicle: carboxymethylcellulose (CMC) 105 % of control | dose: 400.0 mg/kg/injection, schedule: Q01DX001 (ip), vehicle: carboxymethylcellulose (CMC) 110 % of control

CCCCCOC(=O)C1OC1(CC)c1ccccc1 (configuration not stated)
inactive: [21] 97 % of control | [22] 101 % of control | [23] 120 % of control

Nc1ccc(-c2ccc3ccccc3n2)cc1
inactive: dose: 12.0 mg/kg/injection, schedule: Q01DX009 (ip), vehicle: Klucel (hydroxypropylcellulose) (HPC) 92 % of control | [18] 94 % of control | [1] 112 % of control | [2] 103 % of control

C=CCON(CC=C)CC=C
inactive: dose: 100.0 mg/kg/injection, schedule: Q04DX002 (ip), vehicle: Klucel (hydroxypropylcellulose) (HPC) 102 % of control | dose: 200.0 mg/kg/injection, schedule: Q04DX002 (ip), vehicle: Klucel (hydroxypropylcellulose) (HPC) 102 % of control | dose: 400.0 mg/kg/injection, schedule: Q04DX002 (ip), vehicle: Klucel (hydroxypropylcellulose) (HPC) 94 % of control

COc1c(NC(=O)Nc2ccccc2Cl)cccc1[N+](=O)[O-]
inactive: dose: 400.0 mg/kg/injection, schedule: Q04DX002 (ip), vehicle: saline with Tween-80 90 % of control

CC(C)NC(=O)C1C2C=CC(C2)C1C(=O)NC(C)C (configuration not stated)
inactive: [11] 100 % of control | [14] 100 % of control | [16] 91 % of control

CSc1ccc(NC(=O)CCl)cc1
inactive: dose: 25.0 mg/kg/injection, schedule: Q01DX009 (ip), vehicle: saline with Tween-80 97 % of control | dose: 25.0 mg/kg/injection, schedule: Q04DX003 (ip), vehicle: saline with Tween-80 97 % of control | [7] 108 % of control | [8] 95 % of control | [9] 100 % of control | [11] 101 % of control

CC(C)(C)N1CCC1C(=O)NN (configuration not stated)
inactive: [24] 96 % of control | [10] 93 % of control | [13] 93 % of control

CCNC(C)(C)C(=O)c1ccco1
inactive: [24] 94 % of control | [10] 100 % of control | [13] 94 % of control

CNS(=O)(=O)c1cc(C)ccc1C
inactive: [5] 94 % of control | [6] 95 % of control | dose: 400.0 mg/kg/injection, schedule: Q01DX009 (ip), vehicle: Klucel (hydroxypropylcellulose) (HPC) 100 % of control

C1CCC(CCCCC2CCC(CCCCC3CCCCC3)CC2)CC1 (configuration not stated)
inactive: [11] 91 % of control | [14] 93 % of control | [16] 96 % of control

COC1OC2COc3ccccc3OC2C2C1N2C(N)=S (configuration not stated)
inactive: [21] 96 % of control | [22] 100 % of control | [23] 100 % of control

COC(=O)C1CC2c3[nH]c4ccccc4c3CCN2C1 (configuration not stated)
inactive: [1] 94 % of control | [2] 92 % of control

O=C(OC1OCC(OCc2ccccc2)C(OCc2ccccc2)C1OCc1ccccc1)c1ccccc1 (configuration not stated)
inactive: [11] 94 % of control | [14] 94 % of control | [16] 91 % of control

Cc1cnc2c(N)nc(-c3ccccc3)nc2n1
inactive: [25] 94 % of control | [26] 103 % of control | dose: 400.0 mg/kg/injection, schedule: Q01DX001 (ip), vehicle: Klucel (hydroxypropylcellulose) (HPC) 100 % of control

CC(CCN)(CCN)[N+](=O)[O-]
inactive: [27] 98 % of control | [28] 92 % of control | [29] 93 % of control

CC(N)c1cccc2ccccc12 (configuration not stated)
inactive: dose: 25.0 mg/kg/injection, schedule: Q04DX002 (ip), vehicle: saline 98 % of control | dose: 50.0 mg/kg/injection, schedule: Q04DX002 (ip), vehicle: saline 94 % of control | [21] 98 % of control

CC(C)C1CC(C)(C)c2cc(O)ccc2O1 (configuration not stated)
inactive: [1] 101 % of control | [2] 105 % of control | [3] 100 % of control

Clc1ccc(Nc2ncnc3ncn(Cc4ccccc4)c23)cc1
inactive: dose: 100.0 mg/kg/injection, schedule: Q01DX001 (ip), vehicle: other 89 % of control | dose: 200.0 mg/kg/injection, schedule: Q01DX001 (ip), vehicle: other 93 % of control | dose: 400.0 mg/kg/injection, schedule: Q01DX001 (ip), vehicle: other 101 % of control

CCN(CC)S(=O)(=O)c1ccc(OC)c(NC(=O)c2ccc(C(=O)Nc3cc(S(=O)(=O)N(CC)CC)ccc3OC)cc2)c1
inactive: [27] 97 % of control | [28] 94 % of control | [29] 102 % of control

CC(=O)Oc1cc(C)c(OC(C)=O)c2ccccc12
inactive: [5] 96 % of control | [1] 96 % of control | [6] 93 % of control | [2] 103 % of control | [3] 96 % of control

O=C1OC(O)c2cccc3cccc1c23 (configuration not stated)
inactive: dose: 12.5 mg/kg/injection, schedule: Q01DX009 (ip), vehicle: saline with Tween-80 93 % of control and 89 % of control

CC(=O)Oc1c(I)cc(I)cc1C(=O)Nc1ccc(Cl)cc1
inactive: [7] 94 % of control | [9] 87 % of control

OC1CCC(O)CC1 (configuration not stated)
inactive: [12] 100 % of control | [15] 100 % of control | [17] 115 % of control

CC(C)CC(NC(=O)CNC(=O)OCc1ccccc1)C(=O)NC(Cc1ccccc1)C(=O)CCl (stereo not drawn) (Cbz-Gly-Leu-Phe-CH2Cl; configuration not given here)
inactive: [19] 102 % of control | [20] 106 % of control | dose: 75.0 mg/kg/injection, schedule: Q04DX003 (ip), vehicle: Klucel (hydroxypropylcellulose) (HPC) 94 % of control and 90 % of control | [25] 92 % of control | [26] 92 % of control

NS(=O)(=O)c1cc2c(cc1Cl)NC(CC1CCCC1)NS2(=O)=O (configuration not stated)
inactive: [27] 105 % of control | [28] 100 % of control | [29] 107 % of control

COc1cccc2c(=O)c(C(=O)O)c[nH]c12
inactive: [4] 101 % of control | [20] 94 % of control | [5] 106 % of control | [21] 96 % of control | [1] 91 % of control | [6] 107 % of control | [22] 96 % of control | [2] 94 % of control | [23] 100 % of control
